Data on one compound can be found in US5716797A, “Stable two-part reagent for the measurement of creatine kinase activity” (Wako Pure Chemical Industries, Ltd., priority 1995, dated 1998).

The test system of one test is CK activity. The settings on record: Scand. J. Clin. Lab. Invest. 39, 737-742 (1979); cited from earlier work.
In test [1] the target is T1, creatine kinase (CK) in human serum (Homo sapiens, UniProt P06732).
T1 construct: Five fresh human serum samples were used; from tissue; host or cells: fresh human serum
T1 sequence (P06732 whole entry): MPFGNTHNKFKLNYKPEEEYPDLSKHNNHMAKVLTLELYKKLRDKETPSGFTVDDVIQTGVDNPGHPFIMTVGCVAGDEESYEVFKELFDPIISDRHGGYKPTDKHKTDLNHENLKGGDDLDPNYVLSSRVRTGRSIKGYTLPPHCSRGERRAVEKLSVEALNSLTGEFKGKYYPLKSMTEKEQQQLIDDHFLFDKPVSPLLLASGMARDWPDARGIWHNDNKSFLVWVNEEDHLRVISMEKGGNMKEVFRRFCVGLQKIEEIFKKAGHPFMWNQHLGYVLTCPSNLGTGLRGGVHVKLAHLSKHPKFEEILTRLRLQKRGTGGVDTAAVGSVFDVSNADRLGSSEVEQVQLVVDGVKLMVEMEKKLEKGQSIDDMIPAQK
Kind of test: Inhibitory effect of oxidized products of SH compounds on CK activity (HK/G6PDH UV method, NAC 26 mM as reactivator). Format: biochemical. The settings on record: for CK activity value: NAC 26 mM, 37° C. The method, then:
Investigation on the inhibitory effect of oxidized products of SH compounds on CK activity
Thus, oxidized products of the SH compounds, respectively, were obtained.
NAC (26 mM) as CK reactivator, each 5 mM of SH compound oxidized product obtained above, 2.6 mM of ADP, 3.9 u/ml of HK (available from Oriental Yeast Co., Ltd.), 8.0 u/ml of G6PDH (available from Oriental Yeast Co., Ltd.), 2.6 mM of NADP, 21 mM of glucose, 10 mM of magnesium acetate, 6.5 mM of AMP, 0.013 mM of APSA, 0.1% (w/v) of sodium azide and 2 mM of EDTA-2Na were dissolved in 128 mM imidazole-acetate buffer (pH 6.7). The thus obtained solutions were adjusted to pH 6.7 with sodium hydroxide to obtain enzyme solutions.
An enzyme solution containing no SH compound oxidized product was prepared as a control standard solution.
Five fresh human serum samples were used.
To 8 μl of each sample was added 320 μl of each enzyme solution, followed by preincubation for 5 minutes. Then, 80 μl of the substrate solution was added to initiate the reaction and the change of absorbance per minute was measured for 3 minutes from 2 minutes after the addition of the substrate solution. The CK activity value was calculated from the molecular extinction coefficient of the NADPH produced.
As a measuring apparatus, an Autoanalyzer Hitachi Model 7150 was used, and the measurement was carried out at 37° C. by use of dual wavelength (λ1 =405 nm, λ2 =340 nm).
Tables 2 and 3 show the CK activity values of the 5 samples in each case and the average thereof.

Turning to `CC(=O)N[C@@H](CSSC[C@H](NC(C)=O)C(=O)O)C(=O)O` [NAC oxidized product], the “effect on CK activity” value in the test with CK activity is “inhibits CK activity”. In addition, the CK activity value in test [1] (Sample 1 (fresh human serum), 5 mM SH compound oxidized product) was determined as 124 IU/l; in test [1] (Sample 2, 5 mM SH compound oxidized product), 342 IU/l; in test [1] (Sample 3, 5 mM SH compound oxidized product), 87 IU/l; in test [1] (Sample 4, 5 mM SH compound oxidized product), 272 IU/l; in test [1] (Sample 5, 5 mM SH compound oxidized product) it was 80 IU/l. Besides, the “CK activity value, Average” value in test [1] (average of 5 samples, 5 mM SH compound oxidized product) was 181 IU/l. Besides, the activity at 5000 µM in test [1] (average with enzyme solution containing no SH compound oxidized product = 100%, 5 mM oxidized product, read-out: CK activity, relative value) turned out to be 80.1%.
